As a reminder, the KD is a measure of binding affinity in units of concentration.

This note sets out measurements from article PMC4041448 (2014).

The structures appear in SMILES notation.

Test [1] concerns RNA hairpin with six 5'CUG/3'GUC internal loops (RNA, repeat) GGGAGAGGGUUUAAUCUGCUGCUGCUGCUGCUGUACGAAAGUACUGCUGCUGCUGCUGCUGAUUGGAUCCGCAAGG
The test is described as follows: competition dialysis. The conditions noted are these: 110 mM KCl, 2 mM MgCl2, 2 mM CaCl2, 8 mM Na phosphate; 1 mM EDTA, pH 7.0, 20–22°C; 1 μM ligand, 1.33 μM RNA; compared with MBNL1 protein.

Test [2] concerns U·U RNA hairpin (5'CNG/3'GNC panel) (RNA, mismatch bulge abasic) GGGAGAGGGUUUAAUCUGUACGAAAGUACUGAUUGGAUCCGCAAGG
Description: competition dialysis. Conditions: 110 mM KCl, 2 mM MgCl2, 2 mM CaCl2, 8 mM Na phosphate; 1 mM EDTA, pH 7.0, 20–22°C; 1 μM ligand, 1.56 μM RNA; bound ligand concentration.

Test [3] relates to Cy3-(CUG)10 RNA (RNA, repeat) CUGCUGCUGCUGCUGCUGCUGCUGCUGCUG
Description: fluorescence titration (Cy3 emission). The conditions noted are these: HEPES-buffered saline; 0.5% DMSO, 0.005% Tween-20; one-site fit.

In test [4] the test system is A-G RNA hairpin (5'CNG/3'GNC panel) (RNA, mismatch bulge abasic) GGGAGAGGGUUUAAUCAGUACGAAAGUACGGAUUGGAUCCGCAAGG
The test is described as follows: competition dialysis. Conditions: 110 mM KCl, 2 mM MgCl2, 2 mM CaCl2, 8 mM Na phosphate; 1 mM EDTA, pH 7.0, 20–22°C; 1 μM ligand, 1.56 μM RNA; bound ligand concentration.

Test [5] has as its system no loop RNA (RNA, hairpin) GGGAGAGGGUUUAAUCAGUACGAAAGUACUGAUUGGAUCCGCAAGG
Description: competition dialysis. Conditions: 110 mM KCl, 2 mM MgCl2, 2 mM CaCl2, 8 mM Na phosphate; 1 mM EDTA, pH 7.0, 20–22°C; 1 μM ligand, 1.56 μM RNA; bound ligand concentration.

As for `COC(=O)c1ccc(O)c2nc3c(C=O)c(O)cc(O)c3nc12`, the binding result in test [1] and in test [2] was “yes” each time. Also, the KD in test [3] came to 998 ± 180 nM.

For `COC(=O)c1ccc(O)c2nc3c(C=O)c(O)c(-c4c(O)c(C=O)c5nc6c(O)ccc(C(=O)OC)c6nc5c4O)c(O)c3nc12`, the binding entry in test [1] and in test [2] was “yes” throughout. For the same molecule, the “Bound Dilomofungin (Cb)” value in test [4] was found to be 77.8 ± 33 nM; in test [5], 228 ± 77 nM. Also, the KD in test [3] came to 606 ± 300 nM.
